The experiment addresses Serine/threonine-protein kinase mTOR (Homo sapiens) (UniProt P42345). In words: mTOR FRB domain ligand binding – biophysical, NMR (AID 1648). To be noted: NMR binding to FRB domain, chemical shift.

In general, Kd refers to the free concentration of one partner at which half of the binding sites on the other are occupied at equilibrium, for simple one-to-one binding.

Molecules are shown by their SMILES. Active and inactive are the calls of the source. How the calls were made is not given here.

Serine/threonine-protein kinase mTOR (Homo sapiens), sequence (P42345 2015-2114): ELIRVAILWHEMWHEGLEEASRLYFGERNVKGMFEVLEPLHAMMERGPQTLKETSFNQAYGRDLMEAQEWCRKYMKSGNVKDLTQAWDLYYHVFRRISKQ

As to `CN(C)C(=O)c1ccc(-c2n[nH]c(=O)c3ccccc23)cc1`, the Kd was > 4 mM (inactive).

For the compound `Nc1ccc(F)cc1F`, the Kd is > 4 mM (inactive).

On to `CCOc1ccc2ccccc2c1C(=O)N1CCOCC1`, for which the Kd was > 4 mM (inactive).

Turning to `C=C1C(=O)O[C@@H]2C[C@@]3(C)CCC[C@H](C)C3=C[C@H]12`, the Kd is > 4 mM (inactive).

As to `Cc1cc(C(=O)Nc2ccon2)cs1`, the Kd was > 4 mM (inactive).

As for `CN(C)C(=O)Oc1ccc(-c2nnco2)cc1`, the Kd is > 4 mM (inactive).

Turning to `O=c1c(-c2ccccc2)coc2cc(O)cc(O)c12`, the Kd is > 4 mM (inactive).

As for `CC(=O)Nc1ccc(NC(C)=O)c(C(F)(F)F)c1`, the Kd is > 4 mM (inactive).

Turning to `COCC(=O)Nc1cccc(Br)c1`, the Kd is > 4 mM (inactive).

Take `CC(=O)NC(c1ccccc1)c1cccnc1` (stereo unspecified): the Kd is > 4 mM (inactive).

For `CNc1nc(SC)nc(N2CCOCC2)n1`, the Kd was > 4 mM (inactive).

On to `Nc1c(N2CCCC2)cnn(-c2ccccc2)c1=O`, for which the Kd is > 4 mM (inactive).

On to `O=C(Nc1cccc(Cl)c1)c1cnn2cccnc12`, for which the Kd was > 4 mM (inactive).

On to `O=C(NC1CCS(=O)(=O)C1)C1CCCCC1` (stereo unspecified), for which the Kd was > 4 mM (inactive).

Take `Cn1cnc2ccc([N+](=O)[O-])cc2c1=O`: the Kd was > 4 mM (inactive).

For `CCc1noc(C)c1C(=O)Nc1ncc(C)s1`, the Kd was > 4 mM (inactive).

Consider `CC(=O)Nc1nnc(-c2ccncc2)s1`, for which the Kd was > 4 mM (inactive).

In the case of `CC(=O)Oc1ccc2c(c1OC(C)=O)OCC1(O)Cc3c(cc(OC(C)=O)c(OC(C)=O)c3OC(C)=O)C21` (stereo unspecified), the Kd is > 4 mM (inactive).

Take `O=c1nc(NCc2ccco2)sc2ncccc12`: the Kd was > 4 mM (inactive).

In the case of `CSc1cc(C)[nH]c(=O)n1`, the Kd is > 4 mM (inactive).

On to `OC1CC2CCC1C2` (stereo unspecified), for which the Kd is > 4 mM (inactive).

Consider `CC1=C/C(=C\c2c(O)[nH]c(=O)[nH]c2=O)C(C)=N1`, for which the Kd was > 4 mM (inactive).

As for `COC(=O)c1scc(C)c1N`, the Kd is > 4 mM (inactive).

Regarding `CC12CCC(O)CC1CCC1C2[C@H](O)CC2(C)C(C3=CC(=O)OC3)CCC12O` (stereo partly specified), the Kd was > 4 mM (inactive).

Regarding `N=c1n(N)c2ccccc2n1CCO`, the Kd is > 4 mM (inactive).

For the compound `NC1=NC(=O)/C(=C/c2cccc([N+](=O)[O-])c2)S1`, the Kd is > 4 mM (inactive).

On to `CC(C)=CCc1c(O)cc(C)oc1=O`, for which the Kd was > 4 mM (inactive).

For the compound `CC1=CC(=O)CC(C)(C)C1(O)/C=C/C(C)=C\C(=O)O` (stereo unspecified), the Kd was > 4 mM (inactive).

As to `N#Cc1ccccc1CSc1ccccn1`, the Kd was > 4 mM (inactive).

Take `OC1CCN(Cc2ccc[nH]2)CC1`: the Kd was > 4 mM (inactive).

In the case of `O=C(O)C1CN2CCC1CC2` (stereo unspecified), the Kd was > 4 mM (inactive).

For `NS(=O)(=O)c1ccccc1Cl`, the Kd is > 4 mM (inactive).

In the case of `O=c1c2ccccc2ncn1C1CCCCC1`, the Kd is > 4 mM (inactive).

Consider `S=C(CN1CCCC1=S)N1CCOCC1`, for which the Kd is > 4 mM (inactive).

`CC(C)(C)NC(=O)N1CCC(C(N)=O)CC1`: the Kd is > 4 mM (inactive).

`COC(=O)c1ccc(Cl)c(NC(C)=O)c1`: the Kd was > 4 mM (inactive).

`COc1ccc(C2(CN)CCOCC2)cc1OC`: the Kd was > 4 mM (inactive).

For `O=C1NCC(=O)N2CCc3ccccc3C12` (stereo unspecified), the Kd was > 4 mM (inactive).

Regarding `Cn1nnc2cc(C(=O)N3CCSCC3)ccc21`, the Kd was > 4 mM (inactive).

In the case of `Cc1ccc2c(C)c(C(=O)Nc3nnc(C)s3)oc2c1`, the Kd is > 4 mM (inactive).

Consider `Cc1[nH]c2ccccc2c1C=Nn1cncn1`, for which the Kd was > 4 mM (inactive).

Consider `CCOC(=O)c1cc(C)n(C)n1`, for which the Kd was > 4 mM (inactive).

With `CC(=O)NCC1OCCc2ccccc21` (stereo unspecified), the Kd is > 4 mM (inactive).

On to `NC(=O)C1CC2C=CC1C2` (stereo unspecified), for which the Kd was > 4 mM (inactive).

As to `O=C1CCC(C(=O)NCc2cccnc2)N1` (stereo unspecified), the Kd was > 4 mM (inactive).

Consider `Fc1ccc(-c2n[nH]c(=S)n2CC2CCCO2)cc1` (stereo unspecified), for which the Kd is > 4 mM (inactive).

As for `COc1ccc2[nH]cc(CCNC(C)=O)c2c1`, the Kd is > 4 mM (inactive).

Take `NC(=O)CSc1nc2[nH]ncc2c(=O)[nH]1`: the Kd is > 4 mM (inactive).

As to `CC(=O)Nc1ccc(-c2nc(C)c(C(C)=O)n2O)cc1`, the Kd is > 4 mM (inactive).

Take `O=C(Nc1cnccn1)c1cccs1`: the Kd is > 4 mM (inactive).

For `COc1c2occc2c(OC)c2c(=O)cc(C)oc12`, the Kd was > 4 mM (inactive).

Turning to `CCOC(=O)Cc1cc(=O)n2[nH]c(C)cc2n1`, the Kd is > 4 mM (inactive).

As to `O=C(OC[C@H]1O[C@H](OC(=O)c2cc(O)c(O)c(OC(=O)c3cc(O)c(O)c(O)c3)c2)[C@H](OC(=O)c2cc(O)c(O)c(OC(=O)c3cc(O)c(O)c(O)c3)c2)[C@@H](OC(=O)c2cc(O)c(O)c(OC(=O)c3cc(O)c(O)c(O)c3)c2)[C@@H]1OC(=O)c1cc(O)c(O)c(OC(=O)c2cc(O)c(O)c(O)c2)c1)c1cc(O)c(O)c(OC(=O)c2cc(O)c(O)c(O)c2)c1`, the Kd is > 4 mM (inactive).

On to `Nc1ncnc2c1ncn2CCOc1ccccc1`, for which the Kd was > 4 mM (inactive).

For the compound `Nc1cccc(-n2cnnn2)c1`, the Kd is > 4 mM (inactive).

On to `CCOc1ccc(C)cc1S(=O)(=O)n1ccc(C)n1`, for which the Kd was > 4 mM (inactive).

As for `CCC(=O)Nc1ccc(-c2nn3c(C)nnc3s2)cc1`, the Kd is > 4 mM (inactive).

For `COC(=O)CSc1ncnc2c(C)csc12`, the Kd is > 4 mM (inactive).

For the compound `NCc1ccc(-c2ccccn2)s1`, the Kd is > 4 mM (inactive).

Take `C[C@H]1O[C@@H](O[C@H]2[C@@H](O)C[C@H](O[C@H]3[C@@H](O)C[C@H](O[C@H]4CC[C@]5(C)C6CC[C@]7(C)[C@@H](C8=CC(=O)OC8)CC[C@]7(O)C6CC[C@@H]5C4)O[C@@H]3C)O[C@@H]2C)C[C@H](O)[C@@H]1O` (stereo partly specified): the Kd was > 4 mM (inactive).

On to `COC(=O)c1cccs1`, for which the Kd was > 4 mM (inactive).

For `CN1CC(=O)Nc2ccc([N+](=O)[O-])cc2C1=O`, the Kd is > 4 mM (inactive).

On to `COc1c(O)cc(O)cc1O`, for which the Kd is > 4 mM (inactive).

For `NNC(=O)c1ccccc1-n1cccc1`, the Kd was > 4 mM (inactive).

On to `CN(C)CCNC(CC(=O)Nc1ccccc1)C(=O)O` (stereo unspecified), for which the Kd was > 4 mM (inactive).

`Cc1c(C(=O)N2CCOCC2)oc2c1C(=O)CC(C)(C)C2`: the Kd is > 4 mM (inactive).

`Cc1ccc(C)c(C(=O)n2cnnc2N)c1`: the Kd was > 4 mM (inactive).

For `CC(CCC(=O)O)[C@H]1CCC2C3C[C@H](O)[C@@H]4C[C@H](O)CC[C@]4(C)C3CC[C@@]21C` (stereo partly specified), the Kd is > 4 mM (inactive).

In the case of `Nc1ncnc(NC2CCS(=O)(=O)C2)c1[N+](=O)[O-]` (stereo unspecified), the Kd is > 4 mM (inactive).

`C=C1C2=CC(=O)O[C@@H](c3ccoc3)[C@]2(C)CCC1[C@@]1(C)C=CC(=O)C(C)(C)[C@@H]1CC(=O)OC` (stereo partly specified): the Kd is > 4 mM (inactive).

For the compound `NC1=C([N+](=O)[O-])C(=O)c2ccccc21`, the Kd is > 4 mM (inactive).

The record behind these values is PubChem BioAssay AID1648 (Sanford-Burnham Center for Chemical Genomics, 2009).
